Test results published in ChEMBL document CHEMBL1140760, “Molecular docking identifies the binding of 3-chloropyridine moieties specifically to the S1 pocket of SARS-CoV Mpro” (Bioorg Med Chem, 2008).

Assay: Inhibition of SARS-CoV Mpro
Set-up: species or system Severe acute respiratory syndrome-related coronavirus

Structure (SMILES)	IC50
O=C(Oc1cncc(Cl)c1)c1ccc(-c2ccc(Cl)cc2)o1	63 nM
O=C(Oc1cncc(Cl)c1)c1ccccc1[N+](=O)[O-]	333 nM
O=C(Oc1cncc(Cl)c1)c1cccc([N+](=O)[O-])c1	684 nM
O=C(Oc1cncc(Cl)c1)c1ccc(-c2ccc(Cl)cc2[N+](=O)[O-])o1	122 nM
O=C(Oc1cncc(Cl)c1)c1ccc(-c2cccc([N+](=O)[O-])c2)o1	500 nM
O=C(Oc1cncc(Cl)c1)c1cc2ccccc2oc1=O	108 nM
O=C(Oc1cncc(Cl)c1)c1ccc(-c2ccc([N+](=O)[O-])cc2)o1	60 nM
O=C(Oc1cncc(Cl)c1)c1ccc(-c2ccccc2[N+](=O)[O-])o1	208 nM
O=C(Oc1cncc(Cl)c1)c1cccc2ccccc12	124 nM
